How the values were obtained:
Assay type in all cases: in vivo
[1] = test system: umbrella sedge (Cyperus difformis); assay: Test B flooded paddy test
Procedure, shortened: (§1)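 Plants were grown to the 2-leaf stage, then pots were flooded to 3 cm above the soil and compounds were applied directly into the paddy water. That depth was held throughout. After 13 to 15 days in a greenhouse, injury was visually rated against controls on a 0–100 scale.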

rice (Oryza sativa) = assay: Test B flooded paddy test
Procedure, shortened: as §1

[2] = test system: green foxtail (Setaria viridis); assay: Test B pre-/postemergence plant response
Procedure, shortened: (§2)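 Visually scored on a 0 to 100 scale after 13 to 15 days in greenhouse versus controls. Treatments were preemergence on seeded loam/sand soil and postemergence on 1- to 4-leaf plants.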

[3] = test system: goosegrass (Eleusine indica); assay: Test B pre-/postemergence plant response
Procedure, shortened: as §2

[4] = test system: giant foxtail (Setaria faberii); assay: Test B pre-/postemergence plant response
Procedure, shortened: as §2

[5] = test system: Surinam grass (Brachiaria decumbens); assay: Test B pre-/postemergence plant response
Procedure, shortened: as §2

[6] = test system: ragweed (common ragweed, Ambrosia elatior); assay: Test B pre-/postemergence plant response
Procedure, shortened: as §2

[7] = test system: blackgrass (Alopecurus myosuroides); assay: Test B pre-/postemergence plant response
Procedure, shortened: as §2

[8] = test system: pigweed (Amaranthus retroflexus); assay: Test B pre-/postemergence plant response
Procedure, shortened: as §2

[9] = test system: lambsquarters (Chenopodium album); assay: Test B pre-/postemergence plant response
Procedure, shortened: as §2

wild oat (Avena fatua) = assay: Test B pre-/postemergence plant response
Procedure, shortened: as §2

[10] = test system: johnsongrass (Sorghum halepense); assay: Test B pre-/postemergence plant response
Procedure, shortened: as §2

corn (Zea mays) = assay: Test B pre-/postemergence plant response
Procedure, shortened: as §2

[11] = 250 g ai/ha, flooded paddy test, visual rating on 0 to 100 scale (0 no effect, 100 complete control) after 13 to 15 days
[12] = Flood (flooded paddy test), 62 g ai/ha, scale of 0 to 100 where 0 is no effect and 100 is complete control, 13 to 15 days
[13] = 31 g ai/ha, postemergence, scale 0 to 100, 0 is no effect, 100 is complete control
[14] = 62 g ai/ha, postemergence, 0 is no effect, 100 is complete control, 13 to 15 days
[15] = Postemergence, 125 g ai/ha, visual rating after 13 to 15 days, scale 0 (no effect) to 100 (complete control)
[16] = Postemergence, 250 g ai/ha, scale 0 to 100 (0 no effect, 100 complete control)
[17] = Preemergence, 31 g ai/ha, scale 0 to 100 (0 no effect, 100 complete control)
[18] = Preemergence, 62 g ai/ha, scale 0 to 100 (0 no effect, 100 complete control)
[19] = Preemergence, 125 g ai/ha, scale 0 to 100, 0 no effect, 100 complete control
[20] = Preemergence, 250 g ai/ha, 0 to 100 scale

CCCc1ncc(C(=O)C2=C(O)CCCC2=O)c(=O)n1CC1CCCO1 (centres unmarked) [Compound 74]
Plant response rating, Flood, Sedge, Umbrella [1, 11]: 60
Plant response rating, Sedge, Umbrella [1, 12]: 30
Plant response rating, Flood, Rice (rice (Oryza sativa); [11]): 0
Plant response rating, Rice (rice (Oryza sativa); [12]): 0
Plant response rating, Foxtail, Green [2, 13]: 20
Foxtail, Green plant response rating (0 to 100 scale) [2, 14]: 20
Plant response rating, Foxtail, Green [2, 15]: 80
Plant response rating, Foxtail, Green [2, 16]: 85
Plant response rating, Foxtail, Green [2, 17]: 0
Plant response rating, Foxtail, Green [2, 18]: 0
Plant response rating, Foxtail, Green [2, 19]: 0
Foxtail, Green plant response rating [2, 20]: 0
Plant response rating, Goosegrass [3, 13]: 65
Goosegrass plant response rating (0 to 100 scale) [3, 14]: 75
Plant response rating, Goosegrass [3, 15]: 80
Plant response rating, Goosegrass [3, 16]: 85
Plant response rating, Goosegrass [3, 17]: 98
Plant response rating, Goosegrass [3, 18]: 98
Plant response rating, Goosegrass [3, 19]: 100
Goosegrass plant response rating [3, 20]: 100
Plant response rating, Foxtail, Giant [4, 13]: 25
Foxtail, Giant plant response rating (0 to 100 scale) [4, 14]: 55
Plant response rating, Foxtail, Giant [4, 15]: 70
Plant response rating, Foxtail, Giant [4, 16]: 85
Plant response rating, Foxtail, Giant [4, 17]: 0
Plant response rating, Foxtail, Giant [4, 18]: 0
Plant response rating, Foxtail, Giant [4, 19]: 5
Foxtail, Giant plant response rating [4, 20]: 45
Plant response rating, Surinam Grass [5, 13]: 20
Surinam Grass plant response rating (0 to 100 scale) [5, 14]: 45
Plant response rating, Surinam Grass [5, 15]: 65
Plant response rating, Surinam Grass [5, 16]: 75
Plant response rating, Surinam Grass [5, 17]: 0
Plant response rating, Surinam Grass [5, 18]: 80
Plant response rating, Surinam Grass [5, 19]: 85
Surinam Grass plant response rating [5, 20]: 95
Plant response rating, Ragweed [6, 13]: 75
Ragweed plant response rating (0 to 100 scale) [6, 14]: 75
Plant response rating, Ragweed [6, 15]: 85
Plant response rating, Ragweed [6, 16]: 90
Plant response rating, Ragweed [6, 17]: 10
Plant response rating, Ragweed [6, 18]: 98
Plant response rating, Ragweed [6, 19]: 98
Ragweed plant response rating [6, 20]: 100
Plant response rating, Blackgrass [7, 13]: 0
Blackgrass plant response rating (0 to 100 scale) [7, 14]: 0
Plant response rating, Blackgrass [7, 15]: 25
Plant response rating, Blackgrass [7, 16]: 45
Plant response rating, Blackgrass [7, 17]: 0
Plant response rating, Blackgrass [7, 18]: 0
Plant response rating, Blackgrass [7, 19]: 0
Blackgrass plant response rating [7, 20]: 10
Plant response rating, Pigweed [8, 13]: 90
Pigweed plant response rating (0 to 100 scale) [8, 14]: 98
Plant response rating, Pigweed [8, 15]: 100
Plant response rating, Pigweed [8, 16]: 100
Plant response rating, Pigweed [8, 17]: 98
Plant response rating, Pigweed [8, 18]: 98
Plant response rating, Pigweed [8, 19]: 100
Pigweed plant response rating [8, 20]: 100
Plant response rating, Lambsquarters [9, 13]: 95
Lambsquarters plant response rating (0 to 100 scale) [9, 14]: 95
Plant response rating, Lambsquarters [9, 15]: 95
Plant response rating, Lambsquarters [9, 16]: 98
Plant response rating, Lambsquarters [9, 17]: 98
Plant response rating, Lambsquarters [9, 18]: 98
Plant response rating, Lambsquarters [9, 19]: 98
Lambsquarters plant response rating [9, 20]: 100
Plant response rating, Oat, Wild (wild oat (Avena fatua); [13]): 20
Oat, Wild plant response rating (0 to 100 scale) (wild oat (Avena fatua); [14]): 20
Plant response rating, Oat, Wild (wild oat (Avena fatua); [15]): 60
Plant response rating, Oat, Wild (wild oat (Avena fatua); [16]): 80
Plant response rating, Oat, Wild (wild oat (Avena fatua); [17]): 0
Plant response rating, Oat, Wild (wild oat (Avena fatua); [18]): 0
Plant response rating, Oat, Wild (wild oat (Avena fatua); [19]): 5
Oat, Wild plant response rating (wild oat (Avena fatua); [20]): 5
Plant response rating, Johnsongrass [10, 13]: 0
Johnsongrass plant response rating (0 to 100 scale) [10, 14]: 0
Plant response rating, Johnsongrass [10, 15]: 10
Plant response rating, Johnsongrass [10, 16]: 85
Plant response rating, Johnsongrass [10, 17]: 0
Plant response rating, Johnsongrass [10, 18]: 0
Plant response rating, Johnsongrass [10, 19]: 0
Johnsongrass plant response rating [10, 20]: 0
Plant response rating, Corn (corn (Zea mays); [13]): 0
Corn plant response rating (0 to 100 scale) (corn (Zea mays); [14]): 0
Plant response rating, Corn (corn (Zea mays); [15]): 15
Plant response rating, Corn (corn (Zea mays); [16]): 60
Plant response rating, Corn (corn (Zea mays); [17]): 0
Plant response rating, Corn (corn (Zea mays); [18]): 0
Plant response rating, Corn (corn (Zea mays); [19]): 0
Corn plant response rating (corn (Zea mays); [20]): 0
